Activity calls are given as the source filed them. No cut-off for these calls is given here.
How the values were obtained:
[1] = Metabolic stability in mouse liver microsomes assessed as half life preincubated for 5 mins followed by NADPH addition and measured upto 60 mins by LC-MS/MS analysis; type: ADME, Microsome; details: time < 65 min
[2] = biological target: Cytochrome P450 2E1 (Homo sapiens, UniProt P05181); assay: Inhibition of CYP2E1 in human liver microsomes using chlorzoxazone as substrate preincubated for 5 mins followed by NADPH addition and measured after 30 to 60 mins by LC-MS/MS analysis; type: ADME, Microsome
[3] = biological target: Alpha-1A adrenergic receptor (Homo sapiens) (UniProt P35348); assay: Inhibition of alpha 1A adrenergic receptor (unknown origin) at 1 uM relative to control
[4] = biological target: Histamine H1 receptor (Homo sapiens) (UniProt P35367); assay: Inhibition of Histamine H1 receptor (unknown origin) at 1 uM relative to control
[5] = biological target: Substance-K receptor (Homo sapiens) (UniProt P21452); assay: Inhibition of NK2 receptor (unknown origin) at 1 uM relative to control
[6] = biological target: 5-hydroxytryptamine receptor 7 (Homo sapiens) (UniProt P34969); assay: Inhibition of 5-HT7 receptor (unknown origin) at 1 uM relative to control
[7] = biological target: Mu-type opioid receptor (Homo sapiens) (UniProt P35372); assay: Inhibition of mu opioid receptor (unknown origin) at 1 uM relative to control
[8] = biological target: Glucocorticoid receptor (Homo sapiens) (UniProt P04150); assay: Inhibition of GR receptor (unknown origin) at 1 uM relative to control
[9] = biological target: Transient receptor potential cation channel subfamily V member 1 (Homo sapiens) (UniProt Q8NER1); assay: Inhibition of TRPV1 (unknown origin) at 1 uM relative to control
[10] = biological target: Voltage-dependent N-type calcium channel subunit alpha-1B (Homo sapiens) (UniProt Q00975); assay: Inhibition of Cav2.2 (unknown origin) at 1 uM relative to control
[11] = biological target: Sodium-dependent serotonin transporter (Homo sapiens) (UniProt P31645); assay: Inhibition of 5-HTT (unknown origin) at 1 uM relative to control
[12] = biological target: Sodium-dependent noradrenaline transporter (Homo sapiens) (UniProt P23975); assay: Inhibition of NET (unknown origin) at 1 uM relative to control
[13] = biological target: Muscarinic acetylcholine receptor M3 (Homo sapiens) (UniProt P20309); assay: Activation of muscarinic M3 receptor (unknown origin) at 1 uM relative to control
[14] = biological target: Histamine H1 receptor (Homo sapiens) (UniProt P35367); assay: Activation of Histamine H1 receptor (unknown origin) at 1 uM relative to control
[15] = biological target: Substance-P receptor (Homo sapiens) (UniProt P25103); assay: Activation of NK1 receptor (unknown origin) at 1 uM relative to control
[16] = biological target: Glucocorticoid receptor (Homo sapiens) (UniProt P04150); assay: Activation of GR receptor (unknown origin) at 1 uM relative to control
[17] = biological target: Voltage-dependent N-type calcium channel subunit alpha-1B (Homo sapiens) (UniProt Q00975); assay: Activation of Cav2.2 (unknown origin) at 1 uM relative to control
[18] = biological target: Sodium-dependent noradrenaline transporter (Homo sapiens) (UniProt P23975); assay: Activation of NET (unknown origin) at 1 uM relative to control
[19] = tested on: BMDM; assay: Cytotoxicity against mouse BMDM cells at 0.25 to 2 uM measured after 24 hrs by CCK-8 method; type: toxicity, cell-based; details: dose 0.25-2 µM
[20] = tested on: BMDM; assay: Cytotoxicity against mouse BMDM cells at 4 uM measured after 24 hrs by CCK-8 method; type: toxicity, cell-based
[21] = biological target: NACHT, LRR and PYD domains-containing protein 3 (Mus musculus) (UniProt Q8R4B8); assay: Inhibition of NLRP3 inflammasome activation in LPS/Nigericin induced mouse BMDM cells assessed as suppression of IL-1beta secretion preincubated with LPS for 3 hrs followed by compound addition for 40 mins and further stimulated with nigericin for 40 mins by Western blot analysis; type: cell-based; details: dose 0.25-1 µM, time 80.0 min
[22] = biological target: NACHT, LRR and PYD domains-containing protein 3 (Mus musculus) (UniProt Q8R4B8); assay: Inhibition of NLRP3 inflammasome activation in LPS/Nigericin induced mouse BMDM cells assessed as suppression of caspase-1 secretion preincubated with LPS for 3 hrs followed by compound addition for 40 mins and further stimulated with nigericin for 40 mins by Western blot analysis; type: cell-based; details: dose 0.25-1 µM, time 80.0 min
[23] = biological target: NACHT, LRR and PYD domains-containing protein 3 (Mus musculus) (UniProt Q8R4B8); assay: Inhibition of NLRP3 in LPS/nigericin induced […] mouse BMDM cells assessed as inhibition of IL-18 secretion 0.25 to 1 uM preincubated with LPS for 3 hrs followed by compound addition for 40 mins and further stimulated with nigericin for 40 mins by ELISA method; type: cell-based; details: dose 0.25-1 µM, time 80.0 min
[24] = biological target: NACHT, LRR and PYD domains-containing protein 3 (Mus musculus) (UniProt Q8R4B8); assay: Inhibition of NLRP3 inflammasome activation in LPS/Nigericin induced mouse BMDM cells assessed as effect on NLRP3 expression at 0.25 to 1 uM preincubated with LPS for 3 hrs followed by compound addition for 40 mins and further stimulated with nigericin for 40 mins by Western blot analysis; type: cell-based; details: dose 0.25-1 µM, time 80.0 min
[25] = Tmax in male C57BL/6 mouse at 30 mg/kg, ip measured upto 1440 mins by LC-MS/MS analysis; type: ADME, organism-based; details: in vivo
[26] = Half life in male C57BL/6 mouse at 30 mg/kg, ip measured upto 1440 mins by LC-MS/MS analysis; type: ADME, organism-based; details: in vivo
[27] = Drug distribution in C57BL/6 mouse colon at 30 mg/kg, ip measured after 8 hrs by LC-MS/MS analysis; type: ADME, organism-based; details: read-out: Drug uptake
[28] = Drug distribution in C57BL/6 mouse plasma at 30 mg/kg, ip measured after 0.5 hrs by LC-MS/MS analysis; type: ADME, organism-based
[29] = Drug distribution in C57BL/6 mouse plasma at 30 mg/kg, ip measured after 24 hrs by LC-MS/MS analysis; type: ADME, organism-based
[30] = tested on: THP-1; assay: Binding affinity to NLRP3deltaLRR mutant in PMA- differentiated human THP-1 cells assessed as protection of pronase-mediated protein degradation at 100 to 1000 uM pretreated with LPS for 3 hrs followed by incubation with compound for 50 mins followed by pronase digestion for 30 mins by DARTS analysis; type: cell-based; details: dose 100-1000 µM, time 80.0 min
[31] = tested on: Mus musculus; assay: Anti-colitis activity against DSS-induced ulcerative colitis C57BL/6 mouse model assessed as improvement in body weight loss at 15 to 30 mg/kg, ip administered daily and measured upto 10 days; type: functional, organism-based; details: dose 15-30 mg/kg, time <= 10.0 day
[32] = tested on: Mus musculus; assay: Anti-colitis activity against DSS-induced ulcerative colitis C57BL/6 mouse model assessed as alleviation of reduced crypt count at 15 to 30 mg/kg, ip administered daily and measured after 10 days by H and E staining based analysis; type: functional, organism-based; details: dose 15-30 mg/kg, time 10.0 day
[33] = tested on: Mus musculus; assay: Anti-colitis activity against DSS-induced ulcerative colitis C57BL/6 mouse model assessed as reduction in TNF-alpha level at 15 to 30 mg/kg, ip by ELISA method; type: functional, organism-based; details: dose 15-30 mg/kg
[34] = tested on: Mus musculus; assay: Anti-colitis activity against DSS-induced ulcerative colitis C57BL/6 mouse model assessed as suppression of caspase-1 activation at 15 to 30 mg/kg, ip by Western blot analysis; type: functional, organism-based; details: dose 15-30 mg/kg
[35] = tested on: THP-1; assay: Inhibition of NLRP3-ASC interaction in LPS/nigericin stimulated human THP-1 cells at 1 uM preincubated with LPS for 3 hrs followed by compound addition for 40 mins and further stimulated with nigericin for 40 mins by immunoprecipitation analysis; type: cell-based; details: time 80.0 min
[36] = tested on: THP-1; assay: Inhibition of NLRP3-NEK7 interaction in LPS/nigericin stimulated human THP-1 cells at 1 uM preincubated with LPS for 3 hrs followed by compound addition for 40 mins and further stimulated with nigericin for 40 mins by immunoprecipitation analysis; type: cell-based; details: time 80.0 min

Sequence of NACHT, LRR and PYD domains-containing protein 3 (Mus musculus) (Q8R4B8 whole entry, the tested form may be a part): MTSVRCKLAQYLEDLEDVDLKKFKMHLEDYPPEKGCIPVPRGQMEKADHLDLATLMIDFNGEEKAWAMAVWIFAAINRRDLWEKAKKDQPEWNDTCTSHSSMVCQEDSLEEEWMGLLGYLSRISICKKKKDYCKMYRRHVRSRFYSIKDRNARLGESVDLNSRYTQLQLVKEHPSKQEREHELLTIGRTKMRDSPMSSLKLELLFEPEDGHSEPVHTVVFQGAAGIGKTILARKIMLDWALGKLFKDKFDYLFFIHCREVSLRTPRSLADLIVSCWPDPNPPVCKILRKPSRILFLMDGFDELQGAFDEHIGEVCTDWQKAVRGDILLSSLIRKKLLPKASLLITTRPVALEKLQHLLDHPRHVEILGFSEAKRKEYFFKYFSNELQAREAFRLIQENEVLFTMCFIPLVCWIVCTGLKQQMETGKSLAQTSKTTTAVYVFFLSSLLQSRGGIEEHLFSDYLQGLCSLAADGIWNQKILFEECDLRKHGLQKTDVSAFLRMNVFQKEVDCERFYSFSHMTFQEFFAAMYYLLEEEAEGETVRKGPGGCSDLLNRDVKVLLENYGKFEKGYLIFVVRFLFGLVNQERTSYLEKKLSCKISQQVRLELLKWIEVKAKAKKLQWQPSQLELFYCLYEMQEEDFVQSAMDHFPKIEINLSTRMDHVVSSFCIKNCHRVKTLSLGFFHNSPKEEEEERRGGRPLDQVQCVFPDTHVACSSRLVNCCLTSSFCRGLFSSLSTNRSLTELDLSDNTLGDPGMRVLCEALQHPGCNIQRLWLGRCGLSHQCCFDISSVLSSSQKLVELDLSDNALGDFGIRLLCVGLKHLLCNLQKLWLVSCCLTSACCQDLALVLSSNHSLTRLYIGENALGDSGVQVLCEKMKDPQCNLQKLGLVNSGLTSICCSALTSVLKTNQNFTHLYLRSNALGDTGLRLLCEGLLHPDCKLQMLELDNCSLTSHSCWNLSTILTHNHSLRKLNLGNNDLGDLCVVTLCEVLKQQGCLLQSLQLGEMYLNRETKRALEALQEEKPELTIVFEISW
Sequence of Sodium-dependent noradrenaline transporter (Homo sapiens) (P23975 whole entry): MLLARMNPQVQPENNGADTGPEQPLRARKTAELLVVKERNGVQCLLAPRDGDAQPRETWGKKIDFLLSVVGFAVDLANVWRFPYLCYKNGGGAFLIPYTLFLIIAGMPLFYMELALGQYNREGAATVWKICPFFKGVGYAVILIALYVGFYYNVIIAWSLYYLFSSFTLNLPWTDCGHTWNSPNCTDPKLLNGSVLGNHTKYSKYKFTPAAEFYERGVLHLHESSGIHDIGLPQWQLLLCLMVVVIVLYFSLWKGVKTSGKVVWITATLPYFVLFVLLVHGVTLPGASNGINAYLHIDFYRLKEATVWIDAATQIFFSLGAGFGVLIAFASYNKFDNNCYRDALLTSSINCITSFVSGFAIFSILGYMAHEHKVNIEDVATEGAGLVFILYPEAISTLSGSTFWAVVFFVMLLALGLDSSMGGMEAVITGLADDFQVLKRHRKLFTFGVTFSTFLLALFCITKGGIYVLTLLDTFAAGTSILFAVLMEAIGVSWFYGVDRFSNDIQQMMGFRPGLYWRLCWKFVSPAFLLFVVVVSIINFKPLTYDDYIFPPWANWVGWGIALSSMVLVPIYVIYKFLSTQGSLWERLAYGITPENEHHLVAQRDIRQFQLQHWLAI
Sequence of Voltage-dependent N-type calcium channel subunit alpha-1B (Homo sapiens) (Q00975 whole entry, looked up): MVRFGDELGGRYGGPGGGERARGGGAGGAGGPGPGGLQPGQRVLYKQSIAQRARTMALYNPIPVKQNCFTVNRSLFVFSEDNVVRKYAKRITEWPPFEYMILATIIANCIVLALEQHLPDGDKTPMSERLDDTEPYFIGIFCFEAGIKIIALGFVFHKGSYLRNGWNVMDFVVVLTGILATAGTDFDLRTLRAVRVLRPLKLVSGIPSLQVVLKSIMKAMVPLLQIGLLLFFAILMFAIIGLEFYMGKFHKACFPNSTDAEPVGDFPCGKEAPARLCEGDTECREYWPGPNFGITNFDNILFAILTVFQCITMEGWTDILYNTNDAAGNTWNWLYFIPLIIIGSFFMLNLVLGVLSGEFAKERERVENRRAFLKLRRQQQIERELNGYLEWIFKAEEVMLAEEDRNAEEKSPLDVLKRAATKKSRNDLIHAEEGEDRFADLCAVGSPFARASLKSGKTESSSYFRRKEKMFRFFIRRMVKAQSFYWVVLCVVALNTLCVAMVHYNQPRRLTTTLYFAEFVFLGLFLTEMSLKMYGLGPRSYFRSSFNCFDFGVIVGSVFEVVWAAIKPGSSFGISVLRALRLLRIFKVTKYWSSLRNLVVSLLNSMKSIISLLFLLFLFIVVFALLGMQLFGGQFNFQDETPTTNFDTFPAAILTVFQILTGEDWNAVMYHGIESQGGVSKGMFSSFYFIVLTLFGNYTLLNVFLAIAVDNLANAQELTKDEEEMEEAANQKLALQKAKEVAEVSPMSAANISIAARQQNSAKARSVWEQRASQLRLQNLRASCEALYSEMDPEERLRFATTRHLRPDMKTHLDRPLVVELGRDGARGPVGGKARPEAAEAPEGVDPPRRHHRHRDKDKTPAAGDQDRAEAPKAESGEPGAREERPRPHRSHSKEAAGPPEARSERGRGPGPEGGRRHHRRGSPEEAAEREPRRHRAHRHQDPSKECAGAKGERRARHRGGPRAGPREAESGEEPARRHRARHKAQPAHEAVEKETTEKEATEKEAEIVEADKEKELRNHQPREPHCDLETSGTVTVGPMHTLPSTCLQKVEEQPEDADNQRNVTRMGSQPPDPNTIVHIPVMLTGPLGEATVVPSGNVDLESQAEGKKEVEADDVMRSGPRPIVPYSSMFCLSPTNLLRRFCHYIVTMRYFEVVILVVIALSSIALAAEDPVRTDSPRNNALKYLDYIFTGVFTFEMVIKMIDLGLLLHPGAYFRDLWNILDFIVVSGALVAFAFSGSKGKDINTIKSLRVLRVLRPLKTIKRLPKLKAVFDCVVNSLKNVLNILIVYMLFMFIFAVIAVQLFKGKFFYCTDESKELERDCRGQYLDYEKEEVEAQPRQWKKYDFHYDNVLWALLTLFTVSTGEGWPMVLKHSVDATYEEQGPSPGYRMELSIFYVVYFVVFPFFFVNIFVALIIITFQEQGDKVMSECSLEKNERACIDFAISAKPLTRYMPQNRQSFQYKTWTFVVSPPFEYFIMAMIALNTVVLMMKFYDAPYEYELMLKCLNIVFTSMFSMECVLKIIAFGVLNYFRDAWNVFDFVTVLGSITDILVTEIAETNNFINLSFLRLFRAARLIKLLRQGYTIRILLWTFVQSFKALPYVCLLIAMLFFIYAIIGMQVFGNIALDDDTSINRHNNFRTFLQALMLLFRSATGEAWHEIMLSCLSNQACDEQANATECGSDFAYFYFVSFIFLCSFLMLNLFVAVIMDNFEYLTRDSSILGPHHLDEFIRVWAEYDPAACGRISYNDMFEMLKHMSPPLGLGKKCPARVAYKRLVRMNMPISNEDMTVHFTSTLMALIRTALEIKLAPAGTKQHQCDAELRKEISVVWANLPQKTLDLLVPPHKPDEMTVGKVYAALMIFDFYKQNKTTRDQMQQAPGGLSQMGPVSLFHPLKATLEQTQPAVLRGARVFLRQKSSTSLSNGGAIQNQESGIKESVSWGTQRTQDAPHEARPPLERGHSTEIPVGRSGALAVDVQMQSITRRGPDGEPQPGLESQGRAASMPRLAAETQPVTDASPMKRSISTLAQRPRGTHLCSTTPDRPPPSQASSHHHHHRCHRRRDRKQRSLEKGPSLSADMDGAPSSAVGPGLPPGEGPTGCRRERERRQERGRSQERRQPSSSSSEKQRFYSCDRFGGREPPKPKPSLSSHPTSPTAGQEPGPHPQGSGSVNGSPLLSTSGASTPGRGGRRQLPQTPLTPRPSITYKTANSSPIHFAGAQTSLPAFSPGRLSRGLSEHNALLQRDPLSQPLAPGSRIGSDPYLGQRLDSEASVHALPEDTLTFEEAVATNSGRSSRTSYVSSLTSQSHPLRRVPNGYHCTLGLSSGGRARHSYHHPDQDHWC
Sequence of Histamine H1 receptor (Homo sapiens) (P35367 whole entry): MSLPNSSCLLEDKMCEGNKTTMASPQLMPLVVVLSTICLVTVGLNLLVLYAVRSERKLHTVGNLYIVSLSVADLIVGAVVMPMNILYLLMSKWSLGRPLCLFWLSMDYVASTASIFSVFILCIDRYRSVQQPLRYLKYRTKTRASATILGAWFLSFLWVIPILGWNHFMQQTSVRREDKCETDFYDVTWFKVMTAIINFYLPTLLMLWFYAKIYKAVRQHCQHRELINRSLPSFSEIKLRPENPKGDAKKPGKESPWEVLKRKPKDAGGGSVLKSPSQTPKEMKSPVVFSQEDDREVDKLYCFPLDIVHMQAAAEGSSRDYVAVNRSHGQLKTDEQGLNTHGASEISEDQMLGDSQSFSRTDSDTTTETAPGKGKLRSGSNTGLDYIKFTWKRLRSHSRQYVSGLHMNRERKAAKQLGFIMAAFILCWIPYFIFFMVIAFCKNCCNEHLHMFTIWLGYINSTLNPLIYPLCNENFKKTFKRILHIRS
Sequence of Muscarinic acetylcholine receptor M3 (Homo sapiens) (P20309 whole entry, looked up): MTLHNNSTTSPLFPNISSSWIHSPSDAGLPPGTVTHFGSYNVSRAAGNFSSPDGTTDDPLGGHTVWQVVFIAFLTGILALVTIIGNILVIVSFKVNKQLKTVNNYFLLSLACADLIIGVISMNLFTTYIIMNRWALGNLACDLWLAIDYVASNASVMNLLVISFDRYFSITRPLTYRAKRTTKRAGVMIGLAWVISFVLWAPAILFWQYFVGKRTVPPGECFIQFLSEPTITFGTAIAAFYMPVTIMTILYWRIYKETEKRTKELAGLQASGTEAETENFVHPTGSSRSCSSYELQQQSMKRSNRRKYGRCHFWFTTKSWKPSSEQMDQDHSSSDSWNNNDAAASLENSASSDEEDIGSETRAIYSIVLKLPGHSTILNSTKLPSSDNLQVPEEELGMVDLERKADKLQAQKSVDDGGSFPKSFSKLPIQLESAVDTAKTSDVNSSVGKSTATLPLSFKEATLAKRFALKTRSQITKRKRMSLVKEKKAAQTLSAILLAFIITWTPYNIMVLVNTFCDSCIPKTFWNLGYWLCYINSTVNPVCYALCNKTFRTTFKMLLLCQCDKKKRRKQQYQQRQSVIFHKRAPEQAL

half-life [1]: 1.09 h | IC50 [2]: > 100 µM | inhibition [3]: < 50% | inhibition [4]: < 50% | inhibition [5]: < 50% | inhibition [6]: < 50% | inhibition [7]: < 50% | inhibition [8]: < 50% | inhibition [9]: < 50% | inhibition [10]: < 50% | inhibition [11]: < 50% | inhibition [12]: < 50% | Activity [13]: < 50% | Activity [14]: < 50% | Activity [15]: < 50% | Activity [16]: < 50% | Activity [17]: < 50% | Activity [18]: < 50% | inhibition [21]: Dose-Dependent Effect | inhibition [22]: Dose-Dependent Effect | inhibition [23]: Active | inhibition [24]: inactive | Tmax [25]: 0.78 h | half-life [26]: 6.83 h | concentration at 8 h [27]: 80.2 ng/g | concentration at 0.5 h [28]: 0.22 ng/mL | concentration at 24 h [29]: 1.65 ng/mL
Structure (SMILES): C=C1C(=O)O[C@@H]2C[C@@]3(C)CC[C@@H](OC(=O)c4cnc(Cl)cc4Cl)C(=C)[C@@H]3C[C@H]12
Activity [19]: Non-Toxic | Activity [20]: Toxic | Activity [30]: Active | Activity [31]: Active | Activity [32]: Active | Activity [33]: Active | Activity [34]: Active | inhibition [35]: Active | inhibition [36]: Active
